Measured values: patent US20140228286A1, “SPECIFIC PDE4B-INHIBITORS FOR THE TREATMENT OF DIABETES MELLITUS” (BOEHRINGER INGELHEIM INTERNATIONAL GMBH, priority 2013, published 2014)

Each compound was assayed against T1, PDE4B (Homo sapiens, UniProt Q07343) (assay: PDE4B Scintillation Proximity (SPA) Assay). Conditions: PDE4B active site fragment amino acids 152-484; [3H]cAMP; 30° C., one hour; read-out: Experimentally determined IC50-value for PDE4B inhibition.
T1 construct: active site fragment comprising the amino acids 152-484
T1 sequence (Q07343 324-656): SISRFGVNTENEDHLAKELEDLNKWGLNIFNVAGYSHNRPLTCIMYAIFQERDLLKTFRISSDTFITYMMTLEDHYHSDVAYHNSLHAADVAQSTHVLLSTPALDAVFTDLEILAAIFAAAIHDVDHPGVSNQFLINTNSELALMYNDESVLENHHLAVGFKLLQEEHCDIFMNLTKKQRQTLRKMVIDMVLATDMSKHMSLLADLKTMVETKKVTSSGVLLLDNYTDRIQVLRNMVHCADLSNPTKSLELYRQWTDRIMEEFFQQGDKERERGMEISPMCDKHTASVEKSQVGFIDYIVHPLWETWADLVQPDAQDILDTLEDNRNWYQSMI
Type: biochemical
Text: The IC50-values of the compounds of the invention (Examples 1.1 to 1.47) with respect to their PDE4B-inhibiting ability have been determined with a Scintillation Proximity (SPA) Assay (GE Healthcare, No. TRKQ7090). The Scintillation Proximity (SPA) Assay is based on the detection of the different affinities of the cyclic 3′-5′adenosine monophosphate (cAMP, low affinity) and the linear 5′-adenosine monophosphate (AMP, high affinity) to yttrium-silicate-scintillator beads. The cAMP-specific phosphodiesterase (PDE) PDE4B cleaves the 3′-phosphodiester bond of the tritium-labelled-[^3H]cAMP to the [^3H]5′-AMP. This [^3H]5′-AMP associates with the scintillator beads because of their higher affinity and causes scintillations (light flashes) which can be measured in a Wallac Microbeta Scintillation Counter.
10 μl of a [^3H]cAMP-solution (0.05 μCi in H2O, 10-30 Ci/mmol) are added to 89 μl of a PDE4B-enzyme-solution (active site fragment comprising the amino acids 152-484; 0.15-0.18 ng) in assay buffer (50 mM Tris HCl pH 7.5; 8.3 mM MgCl2; 1,7 mM ethylene glyclol tetraacetic acid (EGTA); 0.25 mg/ml bovine serum albumin (BSA)) and this mixture is incubated at 30° C. for one hour
a) without the compound to be tested (in the presence of 1 μl dimethylsulfoxide (DMSO), corresponding to 1% DMSO) and b) in the presence of the compound to be tested in a concentration of 125 μM, 25 μM, 5 μM, 1 μM, 200 nM, 40 nM, 8 nM, 1.6 nM, 0.32 nM, 0.064 nM, 0.0128 nM (dilution series in 5er-steps beginning from 125 μM until 0.0128 nM, in the presence of 1% DMSO).
After this incubation the reaction is stopped by the addition of 50 μl of bead-solution (500 mg beads/35 ml H2O, 18 mM zinc sulfate). In the following 45 minutes the beads have the opportunity to form a sediment. After that the scintillations are measured in the scintillation counter. If the tested compound is able to inhibit the enzymatic activity of the PDE4B-enzyme, less [^3H]AMP depending on the concentration of the tested compound is produced and less scintillations are measurable. […] The IC50-value stands for the compound concentration at which the PDE4B enzyme activity is inhibited to a half maximal value. Therefore the lower the IC50-value is the better is the PDE4B inhibition.

SMILES | IC50 [nM]
CC(C)[C@H](CO)Nc1nc(N2CCC(c3ccc(Cl)cc3)CC2)nc2c1[S+]([O-])CC2 (stereo partly drawn) [Example 1.1, (R)-2-{2-[4-(4-chlorophenyl)-piperidin-1-yl]-5-oxo-6,7-dihydro-5H-5λ^4-thieno[3,2-d]pyrimidin-4-ylamino}-3-methylbutan-1-ol] | 24.2
[O-][S+]1CCc2nc(N3CCC(c4ccc(Cl)cc4)CC3)nc(NC3(CO)CC3)c21 (stereo not drawn) [Example 1.2, (1-{2-[4-(4-chlorophenyl)-piperidin-1-yl]-5-oxo-6,7-dihydro-5H-5λ^4-thieno[3,2-d]pyrimidin-4-ylamino}-cyclopropyl)-methanol] | 3.4
CCC[C@H](CO)Nc1nc(N2CCC(c3ccc(Cl)cc3)CC2)nc2c1[S+]([O-])CC2 (stereo partly drawn) [Example 1.3, (R)-2-{2-[4-(4-chlorophenyl)-piperidin-1-yl]-5-oxo-6,7-dihydro-5H-5λ^4-thieno[3,2-d]pyrimidin-4-ylamino}-pentan-1-ol] | 8.3
CC(C)(O)[C@H](Nc1nc(N2CCC(c3ccc(Cl)cc3)CC2)nc2c1[S+]([O-])CC2)c1ccc(F)cc1 (stereo partly drawn) [Example 1.4, (R)-1-{2-[4-(4-chlorophenyl)-piperidin-1-yl]-5-oxo-6,7-dihydro-5H-5λ^4-thieno[3,2-d]pyrimidin-4-ylamino}-1-(4-fluorophenyl)-2-methylpropan-2-ol] | 15.3
CN1C[C@@H](Nc2nc(N3CCC(c4ccc(Cl)cc4)CC3)nc3c2[S+]([O-])CC3)CCC1=O (stereo partly drawn) [Example 1.5, (S)-5-{2-[4-(4-chlorophenyl)-piperidin-1-yl]-5-oxo-6,7-dihydro-5H-5λ^4-thieno[3,2-d]pyrimidin-4-ylamino}-1-methylpiperidin-2-one] | 0.6
CN1C(=O)Nc2ccccc2C12CCN(c1nc3c(c(NC4(CO)CC4)n1)[S+]([O-])CC3)CC2 (stereo not drawn) [Example 1.7, 1-(4-(1-hydroxymethylcyclopropylamino)-5-oxo-6,7-dihydro-5H-5λ^4-thieno[3,2-d]pyrimidin-2-yl)-3′-methyl-1′H-spiro[piperidin-4,4′-quinazolin]-2′(3′H)-one] | > 10000
[O-][S+]1CCc2nc(N3CCC(c4noc5ccccc45)CC3)nc(NC3(CO)CC3)c21 (stereo not drawn) [Example 1.8, {1-[2-(4-benzo[d]isoxazol-3-yl-piperidin-1-yl)-5-oxo-6,7-dihydro-5H-5λ^4-thieno[3,2-d]pyrimidin-4-ylamino]-cyclopropyl}-methanol] | 1.9
CCc1[nH]c2ccc(F)cc2c1C1CCN(c2nc3c(c(NC4(CO)CC4)n2)[S+]([O-])CC3)CC1 (stereo not drawn) [Example 1.9, (1-{2-[4-(2-ethyl-5-fluoro-1H-indol-3-yl)-piperidin-1-yl]-5-oxo-6,7-dihydro-5H-5λ^4-thieno[3,2-d]pyrimidin-4-ylamino}-cyclopropyl)-methanol] | 53.8
CN1C[C@@H](Nc2nc(N3CCC(C#N)(c4ccccc4)CC3)nc3c2[S+]([O-])CC3)CCC1=O (stereo partly drawn) [Example 1.10, 1-[4-((S)-1-methyl-6-oxopiperidin-3-ylamino)-5-oxo-6,7-dihydro-5H-5λ^4-thieno[3,2-d]pyrimidin-2-yl]-4-phenylpiperidin-4-carbonitrile] | 3.5
[O-][S+]1CCc2nc(N3CCC(c4ccncc4)CC3)nc(Nc3cccc(F)c3)c21 (stereo not drawn) [Example 1.12, (3-fluorophenyl)-[5-oxo-2-(3,4,5,6-tetrahydro-2H-[4,4′]bipyridinyl-1-yl)-6,7-dihydro-5H-5λ^4-thieno[3,2-d]pyrimidin-4-yl]-amine] | > 10000
CCc1[nH]c2ccc(F)cc2c1C1CCN(c2nc3c(c(Nc4cccc(F)c4)n2)[S+]([O-])CC3)CC1 (stereo not drawn) [Example 1.13, {2-[4-(2-ethyl-5-fluoro-1H-indol-3-yl)-piperidin-1-yl]-5-oxo-6,7-dihydro-5H-5λ^4-thieno[3,2-d]pyrimidin-4-yl}-(3-fluorophenyl)-amine] | > 10000
[O-][S+]1CCc2nc(N3CCC(c4ccc(F)cc4F)CC3)nc(NC3(CO)CC3)c21 (stereo not drawn) [Example 1.14, (1-{2-[4-(2,4-difluorophenyl)-piperidin-1-yl]-5-oxo-6,7-dihydro-5H-5λ^4-thieno[3,2-d]pyrimidin-4-ylamino}-cyclopropyl)-methanol] | 16
CN1C[C@@H](Nc2nc(N3CCC(c4nc5ccccc5o4)CC3)nc3c2[S+]([O-])CC3)CCC1=O (stereo partly drawn) [Example 1.16, (S)-5-[2-(4-benzoxazol-2-yl-piperidin-1-yl)-5-oxo-6,7-dihydro-5H-5λ^4-thieno[3,2-d]pyrimidin-4-ylamino]-1-methylpiperidin-2-one] | 0.1
[O-][S+]1CCc2nc(N3CCC(c4noc5cc(F)ccc45)CC3)nc(NC3(CO)CC3)c21 (stereo not drawn) [Example 1.17, (1-{2-[4-(6-fluorobenzo[d]isoxazol-3-yl)-piperidin-1-yl]-5-oxo-6,7-dihydro-5H-5λ^4-thieno[3,2-d]pyrimidin-4-ylamino}-cyclopropyl)-methanol] | 2.73
[O-][S+]1CCc2nc(N3CCC(c4noc5ccc(F)cc45)CC3)nc(NC3(CO)CC3)c21 (stereo not drawn) [Example 1.18, (1-{2-[4-(5-fluorobenzo[d]isoxazol-3-yl)-piperidin-1-yl]-5-oxo-6,7-dihydro-5H-5λ^4-thieno[3,2-d]pyrimidin-4-ylamino}-cyclopropyl)-methanol] | 1.89
[O-][S+]1CCc2nc(N3CCC(c4nc(-c5ccncc5)no4)CC3)nc(Nc3cccc(F)c3)c21 (stereo not drawn) [Example 1.20, (3-fluorophenyl)-{5-oxo-2-[4-(3-pyridin-4-yl-[1,2,4]oxadiazol-5-yl)-piperidin-1-yl]-6,7-dihydro-5H-5λ^4-thieno[3,2-d]pyrimidin-4-yl}-amine] | 2.7
CC(C)[C@H](CO)Nc1nc(N2CCC(c3nc(-c4ccncc4)no3)CC2)nc2c1[S+]([O-])CC2 (stereo partly drawn) [Example 1.21, (R)-3-methyl-2-{5-oxo-2-[4-(3-pyridin-4-yl-[1,2,4]oxadiazol-5-yl)-piperidin-1-yl]-6,7-dihydro-5H-5λ^4-thieno[3,2-d]pyrimidin-4-ylamino}-butan-1-ol] | > 10000

Continued, values first:

IC50 [nM] | SMILES
4.7 | [O-][S+]1CCc2nc(N3CCC(c4ccc(Cl)cc4)CC3)nc(NC3CCOCC3)c21 (stereo not drawn) [Example 1.6, {2-[4-(4-chlorophenyl)-piperidin-1-yl]-5-oxo-6,7-dihydro-5H-5λ^4-thieno[3,2-d]pyrimidin-4-yl}-(tetrahydropyran-4-yl)-amine]
> 10000 | CN1C(=O)Nc2ccccc2C12CCN(c1nc3c(c(NC4CCOCC4)n1)[S+]([O-])CC3)CC2 (stereo not drawn) [Example 1.11, 3′-methyl-1-(4-(tetrahydro-2H-pyran-4-ylamino)-5-oxo-6,7-dihydro-5H-5λ^4-thieno[3,2-d]pyrimidin-2-yl)-1′H-spiro[piperidin-4,4′-quinazolin]-2′(3′H)-one]
15.4 | [O-][S+]1CCc2nc(N3CCC(c4ccc(F)cc4F)CC3)nc(NC3CCOCC3)c21 (stereo not drawn) [Example 1.15, {2-[4-(2,4-difluorophenyl)-piperidin-1-yl]-5-oxo-6,7-dihydro-5H-5λ^4-thieno[3,2-d]pyrimidin-4-yl}-(tetrahydropyran-4-yl)-amine]
3.46 | [O-][S+]1CCc2nc(N3CCC(c4cc(-c5ccco5)n[nH]4)CC3)nc(NC3CCOCC3)c21 (stereo not drawn) [Example 1.19, {2-[4-(5-furan-2-yl-2H-pyrazol-3-yl)-piperidin-1-yl]-5-oxo-6,7-dihydro-5H-5λ^4-thieno[3,2-d]pyrimidin-4-yl}-(tetrahydropyran-4-yl)-amine]
2.3 | CN1C[C@@H](Nc2nc(N3CCC(Oc4ccc(F)cc4)CC3)nc3c2[S+]([O-])CC3)CCC1=O (stereo partly drawn) [Example 1.22, (S)-5-{2-[4-(4-fluorophenoxy)-piperidin-1-yl]-5-oxo-6,7-dihydro-5H-5λ4-thieno[3,2-d]pyrimidin-4-ylamino}-1-methylpiperidin-2-one]
1.7 | [O-][S+]1CCc2nc(N3CCC(Oc4ccc(C5=NCCO5)cc4)CC3)nc(NC3CCOCC3)c21 (stereo not drawn) [Example 1.23, (2-{4-[4-(4,5-dihydrooxazol-2-yl)-phenoxy]-piperidin-1-yl}-5-oxo-6,7-dihydro-5H-5λ^4-thieno[3,2-d]pyrimidin-4-yl)-(tetrahydropyran-4-yl)-amine]
7 | O=C(O)c1ccc(OC2CCN(c3nc4c(c(NC5CCOCC5)n3)[S+]([O-])CC4)CC2)cc1 (stereo not drawn) [Example 1.24, 4-{1-[5-oxo-4-(tetrahydropyran-4-ylamino)-6,7-dihydro-5H-5λ^4-thieno[3,2-d]pyrimidin-2-yl]-piperidin-4-yloxy}-benzoic acid]
